Results reported in paper PMC13055374, “Engineered antimicrobial-derived peptides to manipulate mixed microbial systems” (Microbiology Spectrum, 2026).
Marks after values point to notes of the source that are not given here.

Tests used:
[1] = test system: L. cremoris; experiment: Cell-binding assay by flow cytometry; parameters: species or system Lactococcus cremoris; conditions: organism printed as L. lactis; signal did not saturate; read-out: Apparent KD
Experimental: (§1) The binding affinity and avidity of pediocin to various gram-positive and gram-negative bacteria were studied using flow cytometry. Late log-phase cells were washed in the sodium phosphate buffer (5 mM, pH 6.0) and resuspended at an OD600 of 10^–3 in sodium-acetate buffer (25 mM, pH 4.0), sodium phosphate buffer (5 mM, pH 6.0), or sodium phosphate buffer (5 mM, pH 7.4) containing 1% bovine serum albumin (BSA) and 100 mM NaCl. Cells were incubated with varying concentrations of the conjugated peptide at 4°C for 30 min. The unbound peptide was removed by centrifugation, and the pellet was resuspended in its respective binding buffer containing 1% BSA. Flow cytometry was performed on an Attune NxT flow cytometer (Life Technologies/ThermoFisher Scientific, Carlsbad, CA). Data (≥10^4 events were recorded) were recorded using a […] (488 nm) at a voltage of 360 V, and gating was performed on an SSC-A versus SSC-H plot to reduce false events.

[2] = test system: L. casei; experiment: Cell-binding assay by flow cytometry; parameters: species or system Lacticaseibacillus casei; conditions: signal did not saturate
Experimental: as §1

[3] = test system: L. coryniformis; assay type: cell-based, Lactobacillus coryniformis; conditions: 24 h
Experimental: (§2) To determine the potency of the purified pediocin PA-1, we generated kill curves against a range of target bacteria (Fig. 1C). The concentration range tested was 3 pM to 3 μM following 10-fold serial dilutions. […] This is in approximate agreement with the published potency of pediocin PA-1 ([46]). Though the molecular mass of pediocin PA-1 is expected to be 4.5 kDa, we observed the partially purified peptide to migrate with an apparent mass of ~12.5 kDa (Fig. 1B). However, subsequent analysis by LC-MS yielded peaks of multiple m/z with the predominant peak at the expected molecular size of 4.6 kDa (Fig. S4). The purified pediocin PA-1, separated on denaturing but non-reducing SDS-PAGE (since this bacteriocin contains two crucial disulfide bonds), was subjected to agar-overlay assay using L. seeligeri as the indicator organism (Fig. S5).
(§3) The antimicrobial spectrum of pediocin PA-1 was assayed using a kill curve. Cultures grown overnight were resuspended in fresh medium at an OD600 of 0.05. EC50 was determined by incubating cells with varying concentrations of pediocin in a 96-well plate, and growth was measured at 600 nm after 24 h.

[4] = Specific activity of partially purified pediocin by agar-well diffusion method; assay type: cell-based; conditions: after cell adsorption-desorption and dialysis
Text: We then proceeded to clone the pediocin operon (pedABCD [43]) from P. acidilactici UL5 into the pSIP-P27 vector for heterologous expression in other lactic acid bacteria, viz., Lactiplantibacillus plantarum WCFS1, Lactococcus cremoris MG1363, and the well-established expression host, E. coli MG1655. The pediocin operon imparted anti-listerial activity to the L. plantarum culture supernatant but not to that of L. cremoris or E. coli (Fig. 1A). Based on the degree of bioactivity, we concluded that the level of recombinant biosynthetic pediocin PA-1 accumulated in L. plantarum culture was […] that observed for P. acidilactici UL5 and was therefore not pursued further. Thus, for subsequent studies, we isolated pediocin PA-1 from P. acidilactici UL5 directly using the cell adsorption-desorption approach (Fig. S2). […] We attempted to further purify the preparation using reverse-phase high performance liquid chromatography with minimal enhancement in purity but a significant loss in yield (Fig. S3). The peptide recovered after cell adsorption-desorption and dialysis was lyophilized for long-term storage to minimize any loss in activity. The peptide using this method was purified 189-fold with a specific activity of 9,434 AU·mg^−1 as measured by agar-well diffusion method (Fig. 1B; Fig. S2A through C). […]

[5] = test system: Bacillus subtilis; experiment: Cell-binding assay by flow cytometry; conditions: maximum mean fluorescence intensity, Hill fit
Experimental: as §1

[6] = test system: L. coryniformis; experiment: Cell-binding assay by flow cytometry; parameters: species or system Lactobacillus coryniformis; conditions: maximum mean fluorescence intensity, Hill fit
Experimental: as §1

[7] = test system: E. coli; experiment: Cell-binding assay by flow cytometry; parameters: species or system Escherichia coli; conditions: negative control species; signal did not saturate; read-out: Apparent KD
Experimental: as §1

[8] = assay type: physicochemical
Text: We then proceeded to clone the pediocin operon (pedABCD [43]) from P. acidilactici UL5 into the pSIP-P27 vector for heterologous expression in other lactic acid bacteria, viz., Lactiplantibacillus plantarum WCFS1, Lactococcus cremoris MG1363, and the well-established expression host, E. coli MG1655. The pediocin operon imparted anti-listerial activity to the L. plantarum culture supernatant but not to that of L. cremoris or E. coli (Fig. 1A). Based on the degree of bioactivity, we concluded that the level of recombinant biosynthetic pediocin PA-1 accumulated in L. plantarum culture was similar to that observed for P. acidilactici UL5 and was therefore not pursued further. Thus, for subsequent studies, we isolated pediocin PA-1 from P. acidilactici UL5 directly using the cell adsorption-desorption approach (Fig. S2). […] We attempted to further purify the preparation using reverse-phase high performance liquid chromatography with minimal enhancement in purity but a significant loss in yield (Fig. S3). The peptide recovered after cell adsorption-desorption and dialysis was lyophilized for long-term storage to minimize any loss in activity. The peptide using this method was purified 189-fold with a specific activity of 9,434 AU·mg^−1 as measured by agar-well diffusion method (Fig. 1B; Fig. S2A through C).

[9] = test system: L. seeligeri; assay type: cell-based, Listeria seeligeri; conditions: 24 h
Experimental: as §2, §3
Figure S7. Growth inhibition of L. seeligeri by modified and unmodified pediocin PA-1.

Which results are given for `CC[C@H](C)[C@@H]1NC(=O)[C@@H](NC(=O)[C@@H](NC(=O)[C@@H](NC(=O)[C@H](C)NC(=O)[C@H](CCCCN)NC(=O)CNC(=O)[C@H](Cc2c[nH]c3ccccc23)NC(=O)[C@H](CC(=O)O)NC(=O)[C@@H](NC(=O)[C@H](CO)NC(=O)[C@@H]2CSSC[C@H](NC(=O)[C@@H](NC(=O)[C@@H](NC(=O)CNC(=O)[C@H](CC(N)=O)NC(=O)CNC(=O)[C@H](Cc3ccc(O)cc3)NC(=O)[C@H](Cc3ccc(O)cc3)NC(=O)[C@@H](N)CCCCN)C(C)C)[C@@H](C)O)C(=O)NCC(=O)N[C@@H](CCCCN)C(=O)N[C@@H](Cc3c[nH]cn3)C(=O)N[C@@H](CO)C(=O)N2)C(C)C)[C@@H](C)O)[C@@H](C)O)CSSC[C@@H](C(=O)O)NC(=O)[C@H](CCCCN)NC(=O)[C@H](Cc2c[nH]cn2)NC(=O)[C@H](CC(N)=O)NC(=O)CNC(=O)[C@H](CCC(N)=O)NC(=O)[C@H](Cc2c[nH]cn2)NC(=O)CNC(=O)CNC(=O)[C@H]([C@@H](C)O)NC(=O)[C@H](C)NC(=O)[C@H](Cc2c[nH]c3ccccc23)NC(=O)[C@H](C)NC(=O)[C@H](CCSC)NC(=O)[C@H](C)NC(=O)CNC(=O)[C@H](CC(N)=O)NC(=O)[C@H](CC(N)=O)NC(=O)[C@H]([C@@H](C)CC)NC1=O` [pediocin PA-1]?
Kd [1]: > 2 µM; MFImax [2]: >2* ×10^3; Kd ([2]; read-out: Apparent KD): > 2 µM; EC50 [3]: ~0.001 µM; specific activity [4]: 9,434 AU·mg^−1; MFImax [5]: 7 ± 1 ×10^3; MFImax [6]: 6.3 ± 0.3 ×10^3; Kd [7]: > 2 µM; stability of peptide recovered at acidic pH compared with basic pH [8]: more stable; EC50 [9]: ~0.0133 µM
